Measurements from patent publication US20260216138A1, “IDENTIFICATION OF OTUD7B INHIBITOR 7BI AND ITS APPLICATION IN REDUCING GROWTH OF NSCLC AND LEUKEMIA CELLS” (The University of North Carolina at Chapel Hill, priority 2023, published 2026).

What was measured:
OTUD7B = target: T1, OTUD7B (Homo sapiens, UniProt Q6GQQ9); assay: In vitro OTUD7B deubiquitination assay, K11-linked di-ub cleavage; assay type: biochemical
T1 construct: OTUD7B (residues 56-446); GST (N, cleaved yes); made in house; host or cells: E. coli BL21-Codon Plus (DE3)-RIL
T1 sequence (Q6GQQ9 56-446): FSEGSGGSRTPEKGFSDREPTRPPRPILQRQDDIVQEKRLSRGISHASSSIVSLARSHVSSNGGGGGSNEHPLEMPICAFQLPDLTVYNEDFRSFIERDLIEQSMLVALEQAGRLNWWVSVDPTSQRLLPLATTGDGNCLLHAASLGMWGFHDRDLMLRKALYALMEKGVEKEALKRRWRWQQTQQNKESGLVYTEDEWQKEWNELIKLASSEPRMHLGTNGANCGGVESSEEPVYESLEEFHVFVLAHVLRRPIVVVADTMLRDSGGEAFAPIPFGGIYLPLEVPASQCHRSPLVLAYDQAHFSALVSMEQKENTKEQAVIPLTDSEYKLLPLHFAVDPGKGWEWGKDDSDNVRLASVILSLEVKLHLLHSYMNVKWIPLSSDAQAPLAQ
From the text: OTUD7B (residues 56-446), OTUD7A (residues 1-462), USP21 (residues 196-565), and USP9X (residues 1551-1970) proteins were expressed in E. Coli BL21-Codon Plus (DE3)-RIL cells. Through an N-terminal GST tag, the DUBs were purified by affinity chromatography using glutathione sepharose 4B (GS4B) resin. Following the liberation of the DUB from the GST tag. the DUBs were subjected to size exclusion chromatography (SEC). To form the K11-linked di-ub, individual ubiquitins (K11R-substituted donor Ub and ΔGG acceptor ubiquitin) were purified and fluorescently-labeled on an N-terminal cysteine using either Cy3- (donor) or Cy5-maleimide (acceptor). The different ubiquitins were then added to a mixture containing UBA1, UBE2S, and MgATP to form di-ub. After an overnight incubation at room temperature, UBE2S was removed by cation-exchange chromatography and the di-ub was purified by SEC. These proteins were used to monitor DUB activity in the presence or absence of the various inhibitors. The inhibitors were incubated with DUBs in a reaction buffer (20 mM Hepes pH=8.0, 200 mM NaCl, 0.25 mg/mL BSA and 0.005% Tween-20) for 5 min at room temperature and then 0.5 uM fluorescently-labeled di-ub (K11-linked) was added to start the reaction. 5×SDS-PAGE loading buffer was used to quench the reaction at the indicated time point. […] Mono-ubiquitin was quantified to generate an IC50 value. […]

Akt-pS473 [1] = assay: Akt-pS473 immunoblot in leukemia cells (HL60, K562, THP1); assay type: cell-based; conditions: indicated doses, 16 hrs
Protocol: (§1) Cells were harvested and lysed in EBC buffer (50 mM Tris pH 7.5, 120 mM NaCl, 0.5% NP-40) supplemented with protease inhibitor cocktail (EDTA-free, mini-tablet) (Bimake) and phosphatase inhibitor cocktail (Bimake) by rotating in the cold room for 10 min followed by high-speed centrifugation at 4° C. The protein concentrations in supernatants of whole cell lysates were measured by NanoDrop OneC using the Bio-Rad Bradford protein assay reagent. Equal amounts of whole cell lysates were resolved on SDS-PAGE and immunoblotted with indicated antibodies. For immunoprecipitation analysis, 1 mg of total cell lysate was incubated with the indicated beads for 3-4 hr at 4° C. The recovered immuno-complexes were washed thoroughly three times with NETN buffer (20 mM Tris, pH 8.0, 100 mM NaCl, 1 mM EDTA and 0.5% NP-40) before being resuspended in SDS sample buffer and resolved on SDS-PAGE and immunoblotted with indicated antibodies.
In addition to NSCLC, overexpression of OTUD7B was also observed in diffuse large B-cell lymphoma and served as a prognostic marker. This promoted us to examine roles of OTUD7B in leukemia cells. […] Similar to NSCLC cells, depletion of OTUD7B in K562 cells also led to increased K63-linked GβL ubiquitination (FIG. 4D). Consistent with a reduction in Akt-pS473 signals, OTUD7B depletion reduced the growth of THP1 (FIG. 4E), K562 (FIG. 4F) and HL60 (FIG. 4G) cells in vitro.

[2] = tested on: K63-linked ubiquitination of GβL; assay: Endogenous K63-linked GβL ubiquitination (GβL-IP); assay type: cell-based; conditions: 16 hrs
Protocol: as §1

Akt-pS473 [3] = assay: Akt-pS473 immunoblot in HEK293 cells; assay type: cell-based
Protocol: Cells were harvested and lysed in EBC buffer (50 mM Tris pH 7.5, 120 mM NaCl, 0.5% NP-40) supplemented with protease inhibitor cocktail (EDTA-free, mini-tablet) (Bimake) and phosphatase inhibitor cocktail (Bimake) by rotating in the cold room for 10 min followed by high-speed centrifugation at 4° C. The protein concentrations in supernatants of whole cell lysates were measured by NanoDrop OneC using the Bio-Rad Bradford protein assay reagent. Equal amounts of whole cell lysates were resolved on SDS-PAGE and immunoblotted with indicated antibodies. For immunoprecipitation analysis, 1 mg of total cell lysate was incubated with the indicated beads for 3-4 hr at 4° C. The recovered immuno-complexes were washed thoroughly three times with NETN buffer (20 mM Tris, pH 8.0, 100 mM NaCl, 1 mM EDTA and 0.5% NP-40) before being resuspended in SDS sample buffer and resolved on SDS-PAGE and immunoblotted with indicated antibodies. […]

[4] = HPLC purified 7Bi (~99% purity) compared with 90% purity

Q: Which results are given for `Cc1cc(NC(=O)c2cnn(C)c2C(=O)Nc2cc(C)nn2C2CCCC2)n(C2CCCC2)n1` [7Bi]?
A: IC50 (OTUD7B; 0.5 uM K11-diub and 5 nM active OTUD7B, 10 min, read-out: IC50, OTUD7B catalytic activity): ~40 µM; suppression of OTUD7B-mediated K11-diub cleavage by purified 7Bi (OTUD7B; [4]): retained its ability to suppress OTUD7B-mediated K11-diub cleavage in vitro; Akt-pS473 signals (Akt-pS473 [1]; HL60 cells): reduced Akt-pS473 signals; Akt-pS473 signals (Akt-pS473 [1]; K562 cells): reduced Akt-pS473 signals; Akt-pS473 signals (Akt-pS473 [1]; THP1 cells): reduced Akt-pS473 signals; K63-linked ubiquitination of GβL at endogenous levels ([2]; A549 cells): increased K63-linked ubiquitination of GβL at endogenous levels; K63-linked GβL ubiquitination at endogenous levels ([2]; K562 cells): increased K63-linked GβL ubiquitination at endogenous levels; downregulation of Akt-pS473 signals by purified 7Bi (Akt-pS473 [3]; [4]): retained its ability; suppression of Akt-pS473 (Akt-pS473 [3]; indicated doses, 16 hrs): efficiently suppressed Akt-pS473
